Data set [1] can be described thus: Toxicity test, subcutaneous injection. The format is in vivo. As to the method:
pGlu-Asn-Ser-Pro-Arg-Gly-NH2 acetate was subcutaneously injected to a SD strain rat at a dose of 1 mg/kg.

Data set [2] has as its system cells of rat cerebral cortex. In words: Action on glutamate-induced neurocyte disorder (in vitro), propidium iodide staining. It counts as cell-based. The settings on record: for inhibitory action against neuronal death induced by glutamate: 4 day treatment, glutamate 1 mM. The procedure:
The cerebral cortex of rat (0-day-old) was incubated at 37°C in a Hank's solution containing 1.5 mg/mL of dispase, and then cells were isolated. The neurocytes were dispersed on a poly-L-lysine-coated multiple well plate at a density of approx. 4 x 10^4 cells/cm^2, and then to the plate was added cytosine-β-arabinofuranoside (20 µM). The nerocytes were cultured on the plate for 4 days.
The nerocytes were identified by indirect fluorescent method using a neuro-filament antibody
The cultured neurocytes were washed with a Hank's solution and further incubated at 37°C for 30 minutes under atmospheric conditions. Incubated neurocytes were again incubated for 10 minutes in a Hank's solution containing glutamate. Then, they were washed, and further incubated for one hour. At 15 minutes before the incubation was complete, propidium iodide (4.6 µg/mL) was added. After the incubations were complete, the incubated neurocytes were washed with PBS (phosphate buffer solution containing sodium chloride), and then observed using fluorescence microscope.
The pGlu-Asn-Ser-Pro-Arg-Gly-NH2 acetate or AVP(4-9) was added to the 4 day-cultured solution prior to the glutamate treatment.

Where a SMILES comes first, the peptide text is derived from it.

Turning to `N=C(N)NCCC[C@H](NC(=O)[C@@H]1CCCN1C(=O)[C@H](CO)NC(=O)[C@H](CC(N)=O)NC(=O)[C@@H]1CCC(=O)N1)C(=O)NCC(N)=O` [pGlu-Asn-Ser-Pro-Arg-Gly-NH2] (HELM PEPTIDE1{[Glp].N.S.P.R.G.[am]}$$$$V2.0), in data set [1] (summary statement), the “toxicity in the conventional toxicity test” value was “no specific toxicity”.

In the case of “[pGlu^4, Cyt^5] AVP (4-9) [AVP(4-9), reference compound]”, the “inhibition of the glutamate-induced neuronal death” value in data set [2] (1 µM test substance) and in data set [2] (10 µM test substance) was “inhibited” throughout.

For `N=C(N)NCCC[C@H](NC(=O)[C@@H]1CCCN1C(=O)[C@H](CO)NC(=O)[C@H](CC(N)=O)NC(=O)[C@@H]1CCC(=O)N1)C(=O)NCC(N)=O` [pGlu-Asn-Ser-Pro-Arg-Gly-NH2 acetate] (HELM PEPTIDE1{[Glp].N.S.P.R.G.[am]}$$$$V2.0), the “inhibitory action against neuronal death induced by glutamate” value in data set [2] (0.1 nM test substance) and in data set [2] (1 nM test substance) was “showed an inhibitory action” in each case. In addition, the “inhibitory action against glutamate toxicity in the presence of V1 receptor antagonist [Pmp^1, Tyr(Me)^2]AVP” value is listed as “reduced” in data set [2] ([Pmp^1, Tyr(Me)^2]AVP 0.1 nM) and “reduced” in data set [2] ([Pmp^1, Tyr(Me)^2]AVP 1 nM). Further, the “changes observed after subcutaneous injection” value in data set [1] (rat, in vivo, sc, 1 mg/kg) is reported as “No noticeable changes were observed”.

The record behind these values is patent publication EP1210948B1, “THERAPEUTC PEPTIDE FOR NERVOUS DISEASES” (NIPPON CHEMIPHAR CO., LTD., priority 1999, dated 2007).
